Tests used:
human delta receptor = target: T1, human delta receptor (Homo sapiens, UniProt P41143); assay: radioligand binding, human delta receptor, HEK-293 cell membranes; conditions: cell not marked (rat), species not given, read-out: δ
T1 construct: purchased Perkin Elmer, Boston, Mass; 6110549; host or cells: HEK-293 cells

human mu opioid receptor = target: T2, human mu opioid receptor (Homo sapiens, UniProt P35372); assay: radioligand binding, human mu opioid receptor, CHO cell membranes; conditions: species not given, read-out: μ
T2 construct: purchased Perkin Elmer, Boston, Mass; 6110535; host or cells: CHO cells

mouse vas deferens = assay: electrically stimulated mouse vas deferens (MVD) ED50; format: cell-based; conditions: ED50, inhibition of electrically induced contractions
[1] = tested on: seizure-like convulsions in mice; assay: mouse seizure-like convulsions; format: in vivo
Description: Mouse Seizure-Like Convulsions and antinociception: The central (CNS) effects of the compound were tested with central delta receptor mediated seizure-like convulsions and central mu opioid receptor mediated antinociceptive effects in mice. Male CD-1 mice (Charles River, Raleigh, N.C.) weighing 20-25 g were used to determine the seizure-like convulsion and antinociception activities for compounds.
They were then observed for seizure-like convulsions for one hour following the treatment. A seizure-like event was recorded if a mouse had uncontrollable clonic (or tonic/clonic) muscle movements that encompassed its entire body, usually followed by a brief cataleptic period. Catalepsy was determined by placing the animal's front paws on a horizontal bar held 2-3 inches from the cage floor. Cataleptic animals made no attempt to remove their paws.

T2 sequence (P35372 whole entry): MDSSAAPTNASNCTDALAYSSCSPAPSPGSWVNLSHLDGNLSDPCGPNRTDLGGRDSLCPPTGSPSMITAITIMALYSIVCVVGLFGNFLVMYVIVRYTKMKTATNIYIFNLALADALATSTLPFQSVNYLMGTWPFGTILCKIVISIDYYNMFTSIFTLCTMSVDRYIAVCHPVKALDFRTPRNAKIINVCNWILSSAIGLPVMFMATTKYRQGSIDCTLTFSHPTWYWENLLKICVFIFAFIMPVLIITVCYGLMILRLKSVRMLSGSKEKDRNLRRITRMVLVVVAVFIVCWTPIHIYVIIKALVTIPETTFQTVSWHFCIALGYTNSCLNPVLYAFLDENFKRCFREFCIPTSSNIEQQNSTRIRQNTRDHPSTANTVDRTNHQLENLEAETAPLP
T1 sequence (P41143 whole entry): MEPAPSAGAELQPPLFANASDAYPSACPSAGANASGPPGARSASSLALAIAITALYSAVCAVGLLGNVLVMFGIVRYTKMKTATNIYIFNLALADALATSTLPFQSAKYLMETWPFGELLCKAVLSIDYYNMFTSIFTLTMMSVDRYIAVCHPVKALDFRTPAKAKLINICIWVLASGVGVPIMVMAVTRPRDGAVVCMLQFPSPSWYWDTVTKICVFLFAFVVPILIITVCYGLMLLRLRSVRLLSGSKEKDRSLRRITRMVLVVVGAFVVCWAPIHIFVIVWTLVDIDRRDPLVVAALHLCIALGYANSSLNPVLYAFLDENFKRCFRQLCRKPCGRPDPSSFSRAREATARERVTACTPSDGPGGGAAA

SMILES | Ki (human delta receptor) | Ki (human mu opioid receptor) | EC50 (mouse vas deferens) | Seiz. ([1]; 20 mg/kg IV) | Seiz. ([1]; 10 mg/kg IV) | Seiz. ([1]; 60 mg/kg PO)
CCOC(=O)CN1CCCN(C(=O)c2cccc(C(c3cccc(O)c3)N3C[C@@H](C)N(CC4CC4)C[C@@H]3C)c2)CC1 (some centres unmarked) | 1.9 nM | 3.9 nM | 38.9 nM | 0% 20 mg/kg IV | – | –
C[C@@H]1CN(C(c2cccc(O)c2)c2cccc(C(=O)N3CCCN(CC(=O)O)CC3)c2)[C@@H](C)CN1CC1CC1 (some centres unmarked) | 6.8 nM | 33.1 nM | 65.2 nM | 0% 20 mg/kg IV | – | –
CCOC(=O)CCCN1CCCN(C(=O)c2cccc(C(c3cccc(O)c3)N3C[C@@H](C)N(Cc4ccccc4)C[C@@H]3C)c2)CC1 (some centres unmarked) | 50.1 nM | 1.2 nM | 10.6 nM | – | 30% 10 mg/kg IV | –
C[C@@H]1CN(C(c2cccc(O)c2)c2cccc(C(=O)N3CCCN(CCCC(=O)O)CC3)c2)[C@@H](C)CN1Cc1cccc(F)c1 (some centres unmarked) | 94 nM | 0.27 nM | 6.37 nM | – | 0% 10 mg/kg IV | –
CCOC(=O)CCCCN1CCCN(C(=O)c2cccc(C(c3cccc(O)c3)N3C[C@@H](C)N(Cc4ccccc4)C[C@@H]3C)c2)CC1 (some centres unmarked) | 2.6 nM | 6.3 nM | 11.1 nM | – | 25% 10 mg/kg IV | –
C[C@@H]1CN(C(c2cccc(O)c2)c2cccc(C(=O)N3CCCN(CCCCC(=O)O)CC3)c2)[C@@H](C)CN1Cc1ccccc1 (some centres unmarked) | 20.4 nM | 23.5 nM | 3.28 nM | – | 0% 10 mg/kg IV | –
CCOC(=O)CCCCN1CCCN(C(=O)c2cccc(C(c3cccc(O)c3)N3C[C@@H](C)N(Cc4cccc(F)c4)C[C@@H]3C)c2)CC1 (some centres unmarked) | 6.1 nM | 15.7 nM | 61.5 nM | – | 0% 10 mg/kg IV | –
C[C@@H]1CN(C(c2cccc(O)c2)c2cccc(C(=O)N3CCCN(CCCCC(=O)O)CC3)c2)[C@@H](C)CN1Cc1cccc(F)c1 (some centres unmarked) | 35.4 nM | 34.8 nM | 14.7 nM | – | 0% 10 mg/kg IV | –
C=CCN1C[C@H](C)N(C(c2cccc(O)c2)c2cccc(C(=O)N3CCCN(CCCCCC(=O)O)CC3)c2)C[C@H]1C (some centres unmarked) | 5.3 nM | 89.9 nM | 19 nM | – | 0% 10 mg/kg IV | –
C=CCN1C[C@H](C)N(C(c2cccc(O)c2)c2cccc(C(=O)N3CCCN(Cc4cccc(C(=O)O)c4)CC3)c2)C[C@H]1C (some centres unmarked) | – | 5.5 nM | 6.23 nM | – | 0% 10 mg/kg IV | –
C=CCN1C[C@H](C)N(C(c2cccc(O)c2)c2cccc(C(=O)N3CCCN(Cc4ccccc4C(=O)O)CC3)c2)C[C@H]1C (some centres unmarked) | – | 1.4 nM | 2.2 nM | – | 40% 10 mg/kg IV | –
C[C@@H]1CN([C@@H](c2cccc(O)c2)c2cccc(C(=O)N3CCN(CC(=O)O)CC3)c2)[C@@H](C)CN1Cc1cccc(F)c1 [Example 67, (4-{3-[(R)-[(2S,5R)-4-(3-Fluoro-benzyl)-2,5-dimethyl-piperazin-1-yl]-(3-hydroxy-phenyl)-methyl]-benzoyl}-piperazin-1-yl)-acetic acid] | – | 10.7 nM | 2.82 nM | – | 0% 10 mg/kg IV | –
CCOC(=O)CCCCN1CCN(C(=O)c2cccc([C@H](c3cccc(O)c3)N3C[C@@H](C)N(CC4CC4)C[C@@H]3C)c2)CC1 [Example 89, 5-(4-{3-[(R)-((2S,5R)-4-Cyclopropylmethyl-2,5-dimethyl-piperazin-1-yl)-(3-hydroxy-phenyl)-methyl]-benzoyl}-piperazin-1-yl)-pentanoic acid ethyl ester] | 15.4 nM | 23.2 nM | 92.7 nM | – | – | –
C[C@@H]1CN([C@@H](c2cccc(O)c2)c2cccc(C(=O)N3CCN(CCCCC(=O)O)CC3)c2)[C@@H](C)CN1CC1CC1 [Example 90, 5-(4-{3-[(R)-((2S,5R)-4-Cyclopropylmethyl-2,5-dimethyl-piperazin-1-yl)-(3-hydroxy-phenyl)-methyl]-benzoyl}-piperazin-1-yl)-pentanoic acid] | 32.5 nM | 409 nM | 46.2 nM | – | – | –
C=CCN1C[C@H](C)N([C@@H](c2cccc(O)c2)c2cccc(C(=O)N3CCN(CCCCCC(=O)OCC)CC3)c2)C[C@H]1C [Example 93, 6-(4-{3-[(R)-((2S,5R)-4-Allyl-2,5-dimethyl-piperazin-1-yl)-(3-hydroxy-phenyl)-methyl]-benzoyl}-piperazin-1-yl)-hexanoic acid ethyl ester] | 5.4 nM | 30.5 nM | 58.8 nM | – | – | –
CCOC(=O)CCCCCN1CCN(C(=O)c2cccc([C@H](c3cccc(O)c3)N3C[C@@H](C)N(Cc4cccc(F)c4)C[C@@H]3C)c2)CC1 [Example 98, 6-(4-{3-[(R)-((2S,5R)-4-(3-Fluorobenzyl)-2,5-dimethyl-piperazin-1-yl)-(3-hydroxy-phenyl)-methyl]-benzoyl}-piperazin-1-yl)-hexanoic acid ethyl ester] | 7.1 nM | 8.5 nM | 102 nM | – | – | –
C[C@@H]1CN([C@@H](c2cccc(O)c2)c2cccc(C(=O)N3CCN(CCCCCC(=O)O)CC3)c2)[C@@H](C)CN1Cc1cccc(F)c1 [Example 99, 6-(4-{3-[(R)-((2S,5R)-4-(3-Fluorobenzyl)-2,5-dimethyl-piperazin-1-yl)-(3-hydroxy-phenyl)-methyl]-benzoyl}-piperazin-1-yl)-hexanoic acid] | 15.7 nM | – | 10.6 nM | – | 0% 10 mg/kg IV | –
C[C@@H]1CN([C@@H](c2cccc(O)c2)c2cccc(C(=O)N3CCN(Cc4ccc(C(=O)O)cc4)CC3)c2)[C@@H](C)CN1CC1CC1 [Example 103, 4-(4-{3-[(R)-((2S,5R)-4-Cyclopropylmethyl-2,5-dimethyl-piperazin-1-yl)-(3-hydroxy-phenyl)-methyl]-benzoyl}-piperazin-1-ylmethyl)-benzoic acid] | – | 84.7 nM | 187 nM | – | – | 0% 60 mg/kg PO
C[C@@H]1CN([C@@H](c2cccc(O)c2)c2cccc(C(=O)N3CCN(Cc4ccc(C(=O)O)cc4)CC3)c2)[C@@H](C)CN1Cc1cccc(O)c1 [Example 104, 4-(4-{3-[(R)-[(2S,5R)-4-(3-Hydroxy-benzyl)-2,5-dimethyl-piperazin-1-yl]-(3-hydroxy-phenyl)-methyl]-benzoyl}-piperazin-1-ylmethyl)-benzoic acid] | 0.99 nM | 19.4 nM | 2.06 nM | – | – | –
COCCN1C[C@H](C)N([C@@H](c2cccc(O)c2)c2cccc(C(=O)N3CCN(Cc4ccc(C(=O)O)cc4)CC3)c2)C[C@H]1C [Example 105, 4-[4-(3-{(R)-(3-Hydroxy-phenyl)-[(2S,5R)-4-(2-methoxy-ethyl)-2,5-dimethyl-piperazin-1-yl]-methyl}-benzoyl)-piperazin-1-ylmethyl]-benzoic acid] | 32 nM | 88.6 nM | 30.6 nM | – | – | –
C=CCN1C[C@H](C)N([C@@H](c2cccc(O)c2)c2cccc(C(=O)N3CCN(Cc4cccc5c4ccn5CC(=O)O)CC3)c2)C[C@H]1C [Example 107, [4-(4-{3-[(R)-((2S,5R)-4-Allyl-2,5-dimethyl-piperazin-1-yl)-(3-hydroxy-phenyl)-methyl]-benzoyl}-piperazin-1-ylmethyl)-indol-1-yl]-acetic acid] | 0.95 nM | 6.5 nM | 3.97 nM | – | – | –
C=CCN1C[C@H](C)N([C@@H](c2cccc(O)c2)c2cccc(C(=O)N3CCN(CCCCCCC(=O)O)CC3)c2)C[C@H]1C [Example 109, 7-(4-{3-[(R)-((2S,5R)-4-Allyl-2,5-dimethyl-piperazin-1-yl)-(3-hydroxy-phenyl)-methyl]-benzoyl}-piperazin-1-yl)-heptanoic acid] | 1.9 nM | – | 7.48 nM | – | 0% 10 mg/kg IV | –
CCOC(=O)CCCCCCN1CCN(C(=O)c2cccc([C@H](c3cccc(O)c3)N3C[C@@H](C)N(Cc4ccccc4)C[C@@H]3C)c2)CC1 [Example 110, 7-(4-{3-[(R)-((2S,5R)-4-Benzyl-2,5-dimethyl-piperazin-1-yl)-(3-hydroxy-phenyl)-methyl]-benzoyl}-piperazin-1-yl)-heptanoic acid ethyl ester] | – | – | 18.8 nM | – | 70% 10 mg/kg IV | –
C=CCN1C[C@H](C)N([C@@H](c2cccc(O)c2)c2cccc(C(=O)N3CCC[C@H]3C(=O)O)c2)C[C@H]1C [Example 144, 1-{3-[(R)-((2S,5R)-4-Allyl-2,5-dimethyl-piperazin-1-yl)-(3-hydroxy-phenyl)-methyl]-benzoyl}-pyrrolidine-2-carboxylic acid] | 0.62 nM | – | 1.15 nM | – | 0% 10 mg/kg IV | –
C=CCN1C[C@H](C)N([C@@H](c2cccc(O)c2)c2cccc(C(=O)N(C)CC(=O)OCC)c2)C[C@H]1C [Example 151, ({3-[(R)-((2S,5R)-4-Allyl-2,5-dimethyl-piperazin-1-yl)-(3-hydroxy-phenyl)-methyl]-benzoyl}-methyl-amino)-acetic acid ethyl ester] | – | 0.5 nM | 1.6 nM | – | 100% 10 mg/kg IV | –
C=CCN1C[C@H](C)N([C@@H](c2cccc(O)c2)c2cccc(C(=O)N(C)CC(=O)O)c2)C[C@H]1C [Example 152, ({3-[(R)-((2S,5R)-4-Allyl-2,5-dimethyl-piperazin-1-yl)-(3-hydroxy-phenyl)-methyl]-benzoyl}-methyl-amino)-acetic acid] | 0.7 nM | – | 2.36 nM | – | 0% 10 mg/kg IV | –

Source: patent US7683168B2, “Compositions of novel opioid compounds and method of use thereof” (priority 2005, dated 2010)
